According to article PMC9404989, “Design and Evaluation of Short Bovine Lactoferrin-Derived Antimicrobial Peptides against Multidrug-Resistant Enterococcus faecium” (Antibiotics, 2022):
No end group written: not given here.

Test system: E. faecium strain C68
Experiment: Growth inhibition assay
Assay type: cell-based, Enterococcus faecium
Conditions: 32 µg/mL, OD600 over 4 h
Method: We cultivated overnight cultures of E. faecium strain C68 in BHI media. We inoculated the bacteria in a fresh BHI medium the next day to achieve the exponential phase and adjusted the bacterial density to 1 × 10^8 CFU/mL. We added 90 µL of this bacterial culture to each well of the microtiter plates (Cat No. 3595, Corning, New York, NY, USA) containing 10 µL of serially diluted 10× peptide solution. We monitored the bacterial growth on a SpectraMax i3x spectrophotometer (Molecular Devices, San Jose, CA, USA) by taking OD600 readings every 10 min for 4 h.

## RRWLWRLRWLWR-NH2 [Peptide 6L]
  growth inhibition: inhibited the maximum growth
